Literature values, collected in US20160052846A1, “METHOD OF DEMULSIFYING AND PURIFYING ORGANIC PRODUCTS FROM AN EMULSION” (CODEXIS, INC., priority 2012, published 2016).
Like-named read-outs stand apart in the source and are kept apart here.

Details: for Water sol: in words, no temperature

Row | Compound | Water sol | further results
1 | CCCC(C)O (centres unmarked) [2-pentanol, pentan-2-ol] | – | Water sol (g per 100 g) (at 20° C.): 4 at 20 °C g per 100 g
2 | CCCCCO [Amyl alcohol, pentan-1-ol] | – | Water sol (g per 100 g) (at 22° C.): 2.7 at 22 °C g per 100 g
3 | CC(C)CO [Isobutanol, 2-methylpropan-1-ol] | – | Water sol (g per 100 g) (at 15° C.): 10 at 15 °C g per 100 g
4 | CC(C)CCO [Isopentanol, 3-methylbutan-1-ol] | – | Water sol (g per 100 g) (at 14° C.): 2 at 14 °C g per 100 g
5 | CC(C)O [Isopropanol, propan-2-ol] | soluble | –
6 | CC(C)(C)CO [Neopentyl alcohol, 2,2-dimethylpropan-1-ol] | Slightly soluble | –
7 | CC(C)C(C)O (centres unmarked) [Sec iso amyl alcohol, 3-methylbutan-2-ol] | Slightly soluble | –
8 | propan-1-ol [Propanol] | soluble | –
